The subject of one assay is Tequatrovirus T4. Put plainly: Apparent binding constant to T4 coliphage DNA was evaluated by measuring the loss of ethidium fluorescence. In kind it is functional.
The test system of assay [1] is Nucleic Acid. Put plainly: Apparent binding constant to poly (dG.dC) DNA was evaluated by measuring the loss of ethidium fluorescence. The class given is nucleic-acid assay.
For the next assay, the species on record is Bos taurus. Briefly: Apparent binding constant to calf thymus DNA was evaluated by measuring the loss of ethidium fluorescence.
Assay [2] relates to Nucleic Acid. Put plainly: Apparent binding constant to poly (dA.dT) DNA was evaluated by measuring the loss of ethidium fluorescence. The class given is nucleic-acid assay.
Assay [3] relates to K562. Put plainly: Inhibitory activity against K-562 (human chronic myeloid Leukemia) cells. In kind it is functional, cell-based.
Another assay deals with HCC 2998. Put plainly: Cytotoxicity against the HCC2998 Colon Cancer cell line from human cancer. The following applies: read-out: LC50 (the source's name). In kind it is functional.
For a further assay, the system named is SK-MEL-2. Put plainly: Cytotoxicity against the SK-MEL-2 Melanoma cell line from human cancer. The class given is functional. As to conditions: read-out: LC50 (the source's name).
The next assay relates to HOP-62. Briefly: Cytotoxicity against the HOP-62 Non-Small Cell Lung Cancer cell line from human cancer. As to conditions: read-out: LC50 (the source's name). In kind it is functional.
In another assay the test system is RXF 393. Briefly: Cytotoxicity against the RXF-393 Renal Cancer cell line from human cancer. In kind it is functional. As to conditions: read-out: LC50 (the source's name).
The subject of another assay is SW-620. Briefly: Cytotoxicity against the SW-620 Colon Cancer cell line from human cancer. In kind it is functional. As to conditions: read-out: LC50 (the source's name).
The test system of the next assay is U-251. Put plainly: Cytotoxicity against the U251 CNS Cancer cell line from human cancer. In kind it is functional. The following applies: read-out: LC50 (the source's name).
The test system of another assay is DMS-273. Put plainly: Cytotoxicity against the DMS273 Small Cell Lung Cancer cell line from human cancer. In kind it is functional. The following applies: read-out: LC50 (the source's name).
For the next assay, the system named is M19-MEL. Briefly: Cytotoxicity against the M19-MEL Melanoma cell line from human cancer. The class given is functional. As to conditions: read-out: LC50 (the source's name).
A further assay relates to OVCAR-4. Briefly: Cytotoxicity against the OVCAR-4 Ovarian Cancer cell line from human cancer. The class given is functional. As to conditions: read-out: LC50 (the source's name).
Another assay deals with HL-60. Put plainly: Cytotoxicity against the HL-60 (TB) Leukemia cell line from human cancer. In kind it is functional. The following applies: read-out: LC50 (the source's name).
For a further assay, the system named is KM12. Briefly: Cytotoxicity against the KM12 Colon Cancer cell line from human cancer. The class given is functional. As to conditions: read-out: LC50 (the source's name).
The next assay deals with SF-268. Briefly: Cytotoxicity against the SF-268 CNS Cancer cell line from human cancer. The class given is functional. As to conditions: read-out: LC50 (the source's name).
A further assay relates to OVCAR-3. Briefly: Cytotoxicity against the OVCAR-3 Ovarian Cancer cell line from human cancer. The class given is functional. As to conditions: read-out: LC50 (the source's name).
The test system of a further assay is NCI-H23. Briefly: Cytotoxicity against the NCI-H23 Non-Small Cell Lung Cancer cell line from human cancer. In kind it is functional. As to conditions: read-out: LC50 (the source's name).
The next assay has as its system SN12C. Briefly: Cytotoxicity against the SN12C Renal Cancer cell line from human cancer. The following applies: read-out: LC50 (the source's name). In kind it is functional.
Another assay concerns Malme-3M. Put plainly: Cytotoxicity against the MALME-3M Melanoma cell line from human cancer. In kind it is functional. As to conditions: read-out: LC50 (the source's name).
Assay [4] deals with K562. Briefly: Cytotoxicity against the K-562 Leukemia cell line from human cancer. As to conditions: read-out: LC50 (the source's name). In kind it is functional.
Another assay concerns EKVX. Put plainly: Cytotoxicity against the […] Non-Small Cell Lung Cancer cell line from human cancer. The class given is functional. The following applies: read-out: LC50 (the source's name).
A further assay has as its system SNB-75. Put plainly: Cytotoxicity against the SNB-75 CNS Cancer cell line from human cancer. The class given is functional. The following applies: read-out: LC50 (the source's name).
The test system of the next assay is MOLT-4. Briefly: Cytotoxicity against the Molt-4 Leukemia cell line from human cancer. The following applies: read-out: LC50 (the source's name). In kind it is functional.
Another assay relates to DMS-114. Put plainly: Cytotoxicity against the DMS114 Small Cell Lung Cancer cell line from human cancer. In kind it is functional. As to conditions: read-out: LC50 (the source's name).
Another assay relates to SK-OV-3. Briefly: Cytotoxicity against the SK-OV-3 Ovarian Cancer cell line from human cancer. As to conditions: read-out: LC50 (the source's name). In kind it is functional.
Another assay relates to COLO 205. Put plainly: Cytotoxicity against the COLO-205 Colon Cancer cell line from human cancer. In kind it is functional. As to conditions: read-out: LC50 (the source's name).
A further assay has as its system SK-MEL-28. Briefly: Cytotoxicity against the SK-MEL-28 Melanoma cell line from human cancer. The class given is functional. As to conditions: read-out: LC50 (the source's name).

As usually defined, the IC50 is the point on the concentration scale where inhibition reaches its midpoint. A higher IC50 goes with weaker potency in that assay.

In the case of `CN(C)CCNC(=O)c1nc(NC(=O)c2nc(NC=O)cn2C)cn1C`, the K app was 40000 M⁻¹ with Tequatrovirus T4, 23000 M⁻¹ with Nucleic Acid [1], 32000 M⁻¹ in the assay listed under Bos taurus and 17000 M⁻¹ in the assay on Nucleic Acid [2]. Moreover, the IC50 in the assay with K562 [3] is more than 500 µM.

In the case of `CN(C)CCNC(=O)c1nc(NC(=O)c2nc(NC(=O)C(Cl)Cl)cn2C)cn1C`, the IC50 in the assay with K562 [3] is more than 500 µM.

`CN(C)CCNC(=O)c1nc(NC(=O)c2nc(NC(=O)C3CC3)cn2C)cn1C` showed an IC50 in the assay with K562 [3] of more than 500 µM.

On to `CN(C)CCNC(=O)c1nc(NC=O)cn1C`, for which the K app with Nucleic Acid [1] was 2000 M⁻¹; in the assay listed under Bos taurus, 25000 M⁻¹.

As for `CCBr`, in the assay with Nucleic Acid [2], the K app was determined as 9.5e+06 M⁻¹.

As to `N[C@@H](Cc1ccc(N(CCCl)CCCl)cc1)C(=O)O` [MELPHALAN], the IC50 in the assay on K562 [3] was 35 µM.

As to `CN(C)CCNC(=O)c1nc(NC(=O)c2nc(NC(=O)c3nc(NC(=O)c4ccc(N(CCCl)CCCl)cc4)cn3C)cn2C)cn1C`, the CC50 in the assay with HCC 2998 was determined as 0.68 µM; with SK-MEL-2, 0.65 µM; with HOP-62, 1.17 µM; with RXF 393 it was 0.66 µM; with SW-620, 0.79 µM; in the assay on U-251, 0.5 µM. The CC50 with DMS-273 is 0.99 µM; with M19-MEL it was 0.56 µM; in the assay with OVCAR-4, 0.61 µM; with HL-60, 0.72 µM; with KM12, 0.96 µM; with SF-268 it was 0.77 µM. In addition, the CC50 with OVCAR-3 turned out to be 0.72 µM; in the assay on NCI-H23 it was 0.96 µM; in the assay on SN12C, 0.61 µM; with Malme-3M it was 2.63 µM; in the assay on K562 [4], 0.58 µM; in the assay with EKVX it was 0.88 µM. Also, the CC50 was determined as 0.61 µM in the assay with SNB-75; 0.98 µM in the assay with MOLT-4; 0.54 µM in the assay with DMS-114; 0.83 µM in the assay on SK-OV-3; 0.97 µM in the assay on COLO 205; 0.91 µM in the assay on SK-MEL-28. For the same molecule, the K app is 168000 M⁻¹ in the assay on Tequatrovirus T4, 495000 M⁻¹ with Nucleic Acid [1], 591000 M⁻¹ in the assay listed under Bos taurus and 950000 M⁻¹ in the assay on Nucleic Acid [2]. Moreover, the IC50 with K562 [3] was found to be 0.3 µM.

For the molecule `Cn1cc(NC(=O)c2cc(NC(=O)c3cc(NC=O)cn3C)cn2C)cc1C(=O)NCCC(=N)N` [STALLIMYCIN], the K app in the assay on Tequatrovirus T4 came to 650000 M⁻¹; with Nucleic Acid [1], 203000 M⁻¹; in the assay listed under Bos taurus it was 774000 M⁻¹; in the assay on Nucleic Acid [2] it was 3.48e+07 M⁻¹.

`CN(C)CCNC(=O)c1nc(NC(=O)c2nc(NC(=O)CCl)cn2C)cn1C` displayed an IC50 with K562 [3] of 350 µM.

In the assay with K562 [3], `CN(C)CCNC(=O)c1nc(NC(=O)c2nc(NC(=O)CBr)cn2C)cn1C` had an IC50 of 400 µM.

Regarding `CN(C)CCNC(=O)c1nc(NC(=O)c2nc(NC(=O)c3ccc(N(CCCl)CCCl)cc3)cn2C)cn1C`, the CC50 in the assay with HCC 2998 came to 33.7 µM; in the assay with SK-MEL-2, 7.17 µM; with HOP-62, 52.3 µM; with RXF 393, 50.3 µM; in the assay on SW-620, 9.95 µM; with U-251, 6.73 µM. Besides, the CC50 with M19-MEL was determined as 5.64 µM; with OVCAR-4, 34.2 µM; in the assay on HL-60 it was 7.84 µM; in the assay with KM12 it was 47 µM; in the assay on SF-268 it was 50 µM; in the assay on OVCAR-3, 56 µM. For the same molecule, the CC50 in the assay with NCI-H23 worked out at 47.1 µM; in the assay with SN12C, 15.6 µM; with Malme-3M, 6.14 µM; with K562 [4], 17.2 µM; with EKVX it was 47.5 µM; in the assay on SNB-75, 41 µM. In addition, the CC50 turned out to be 18.1 µM in the assay with MOLT-4; 5.83 µM in the assay on DMS-114; 52.9 µM in the assay with SK-OV-3; 5.88 µM in the assay on COLO 205; 5.69 µM with SK-MEL-28. Moreover, the K app with Tequatrovirus T4 was found to be 236000 M⁻¹; in the assay on Nucleic Acid [1], 455000 M⁻¹; in the assay filed under Bos taurus it was 456000 M⁻¹; with Nucleic Acid [2], 475000 M⁻¹. Moreover, the IC50 in the assay on K562 [3] came out at 12.5 µM.

With `CN(C)CCNC(=O)c1nc(NC(=O)c2nc(NC(=O)c3nc(NC=O)cn3C)cn2C)cn1C`, the K app in the assay with Tequatrovirus T4 worked out at 667000 M⁻¹; with Nucleic Acid [1], 613000 M⁻¹; in the assay filed under Bos taurus, 774000 M⁻¹; with Nucleic Acid [2], 594000 M⁻¹.

These data come from ChEMBL document CHEMBL1127090, “In vitro cytotoxicity of GC sequence directed alkylating agents related to distamycin” (J Med Chem, 1993).
